# Reference: article PMC4760439, “Glicentin‐related pancreatic polypeptide inhibits glucose‐stimulated insulin secretion from the isolated pancreas of adult male rats” (Physiological Reports, 2015)
# Entries after “also recorded” stand apart in the source; their conditions may differ. Positions of bridges follow the written chain, without caps; N, C: chain ends. No end group written: not given here.
# Experiments:
# [1] = molecular target: T1, human glucagon receptor (hGL‐R) (Homo sapiens, UniProt P47871); experiment: cAMP stimulation in transfected Cos 7 cells, hGL‐R; assay type: cell-based; details: preliminary experiment, hGL‐R with vector; data not shown
# T1 construct: expressed in transfected cells; host or cells: Cos 7 cells
# T1 sequence (P47871 26-477): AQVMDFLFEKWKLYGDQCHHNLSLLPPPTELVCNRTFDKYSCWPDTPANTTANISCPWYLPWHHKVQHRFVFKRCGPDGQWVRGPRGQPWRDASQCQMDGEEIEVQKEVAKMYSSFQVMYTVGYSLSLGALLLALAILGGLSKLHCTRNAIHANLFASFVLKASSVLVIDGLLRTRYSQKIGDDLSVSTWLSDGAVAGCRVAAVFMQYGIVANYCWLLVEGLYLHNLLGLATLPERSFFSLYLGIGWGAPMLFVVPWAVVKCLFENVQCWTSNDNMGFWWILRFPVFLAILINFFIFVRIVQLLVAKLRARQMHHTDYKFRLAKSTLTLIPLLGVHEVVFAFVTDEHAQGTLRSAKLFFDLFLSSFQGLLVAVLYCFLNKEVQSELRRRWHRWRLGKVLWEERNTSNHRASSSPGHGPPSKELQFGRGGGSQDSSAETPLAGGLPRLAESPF
# Description: Transfection of Cos 7 cells
# Cos 7 cells were maintained and subcultured as previously described (Bailey and Hay 2006) and plated at a density of 15,000 cells per well into 96‐well plates 1 day prior to transfection. […] Cyclic AMP assays were performed 48 h after transfection (Bailey and Hay 2006). The human GRPP was obtained from Bachem (Bubendorf, Switzerland).
# (§1) Cyclic AMP stimulation of transfected Cos 7 cells
# (§2) Transfected cells were serum‐deprived in DMEM containing 1 mmol L^−1 IBMX and 0.1% (w/v) bovine serum albumin (BSA) for 30 min. […] Plates were incubated at 37°C for 10 min. […] Media were then aspirated from the wells and reactions terminated by addition of ice‐cold absolute ethanol. Ethanol was then evaporated to dryness and cell extracts re‐suspended in 45 μL cAMP assay buffer: cAMP concentrations were determined using ALPHA‐screen assay kits (Perkin Elmer, Massachusetts) as previously described (Gingell et al. 2010).
# Maximum pancreatic first‐phase insulin secretion in the presence of hormone infusion was contrasted with corresponding control values by unpaired Welch's t‐tests for preplanned comparisons, to allow for unequal variance between groups. Linear mixed‐effects models were fitted by restricted maximum likelihood (LME‐REML) to data obtained from each indicated phase of isolated perfused–organs studies, using S‐PLUS version 8.2 (TIBCO, Spotfire). Calculated P‐values <0.05 are presented in the article and reflect the likelihood ratio between two models, the effect in question (treatment, time, or treatment:time) against the model without the effect in question. Insulin secreted from isolated islets was expressed as a percentage of insulin content and compared using one‐way ANOVA (GraphPad Prism version 6.0: GraphPad Software Inc., San Diego, CA). […]
# isolated rat islets = experiment: Insulin secretion from isolated rat islets (static incubation); assay type: cell-based; details: hGRPP 1, 10, and 100 nmol L^−1, 1 h, 8 to 9 incubations of 10 islets/well, three experiments, ELISA
# Description: Maximum pancreatic first‐phase insulin secretion in the presence of hormone infusion was contrasted with corresponding control values by unpaired Welch's t‐tests for preplanned comparisons, to allow for unequal variance between groups. Linear mixed‐effects models were fitted by restricted maximum likelihood (LME‐REML) to data obtained from each indicated phase of isolated perfused–organs studies, using S‐PLUS version 8.2 (TIBCO, Spotfire). Calculated P‐values <0.05 are presented in the article and reflect the likelihood ratio between two models, the effect in question (treatment, time, or treatment:time) against the model without the effect in question. Insulin secreted from isolated islets was expressed as a percentage of insulin content and compared using one‐way ANOVA (GraphPad Prism version 6.0: GraphPad Software Inc., San Diego, CA). Cyclic AMP data have been normalized to the response obtained to forskolin and fitted to obtain concentration–response curves using a three‐parameter logistic equation (GraphPad Prism version 6.0: GraphPad Software Inc., San Diego, CA): pEC50 values were obtained from the concentration–response curves and compared using one‐way ANOVA. All data are presented as mean ± SEM of three to four independent experiments.
# canine pancreas = details: local circulation preparation of the canine pancreas; ref Ohneda and Ohneda 1988; cited from earlier work
# Description: However, we know of only one study reporting the effects of GRPP on GSIS. […] The precise experimental conditions such as amount of glucose and experimental model used may have influences on the different outcomes; however, the reason for the opposing actions of GRPP between these ...
# hGL‐R with RAMP2 = experiment: cAMP stimulation in Cos 7 cells transfected with hGL‐R and RAMP2; assay type: cell-based, human; details: preliminary experiment; data not shown
# Description: as §1, §2
# [2] = tested on: isolated‐perfused rat pancreas, perifused rat islets, and cultured islets; details: ref Norfleet et al. 1975, Fujimoto 1981, Bolaffi et al. 1990; cited from earlier work
# Description: (§3) GRPP and GRPP‐LP may inhibit insulin secretion indirectly, perhaps by influencing other islet‐derived hormones known to modulate hormone secretion from the β‐cell.
# [3] = tested on: plasma insulin and glucagon; details: infusion in humans; ref Skamene and Patel 1984; cited from earlier work
# Description: as §3
# pancreatic β‐cell = details: ref Metz et al. 1983; Zielmann et al. 1985; Holst et al. 1987; Shima et al. 1988; Goke et al. 1989; Ishizuka et al. 1991; Jia et al. 1995; Vahl et al. 2003; cited from earlier work
substance,measurement,setting,value
"RSLQDTEEKSRSFSASQADPLSDPDQMNED [hGRPP, human glicentin‐related pancreatic polypeptide, The human GRPP was obtained from Bachem]",Stimulation of cAMP production at hGL‐R alone,[1],did not stimulate cAMP production at hGL‐R alone
same,Basal insulin secretion from islets (vs control),isolated rat islets; 2.8 mmol L^−1 glucose,did not affect insulin secretion; also recorded: did not affect basal or stimulated insulin compared with untreated islets
same,Glucose‐stimulated insulin secretion from islets (vs control),isolated rat islets; 16.7 mmol L^−1 glucose,did not affect insulin secretion; also recorded: did not affect basal or stimulated insulin compared with untreated islets
same,"Plasma insulin and glucagon, canine pancreas",canine pancreas,slight increases in plasma insulin and decreases in plasma glucagon
same,Stimulation of cAMP production at hGL‐R in the presence of RAMP2,hGL‐R with RAMP2,did not stimulate cAMP production at hGL‐R alone or in the presence of RAMP2
"somatostatin (AGCKNFFWKTFTSC; disulfide 3-14; ends not checked; UniProt P61278 103-116, looked up) [SST]",GSIS and arginine‐stimulated glucagon secretion,[2],inhibits GSIS as well as arginine‐stimulated glucagon secretion
same,Arginine‐stimulated plasma insulin and glucagon levels,[3],decreased arginine‐stimulated plasma insulin and glucagon levels in a dose‐dependent manner
"glucagon‐like peptide 1 (HAEGTFTSDVSSYLEGQAAKEFIAWLVKGR; ends and bridges not checked; UniProt P01275 98-127, looked up) [GLP‐1, incretin; literature statement, form not specified]",GSIS (action on pancreatic β‐cell),pancreatic β‐cell,enhance glucose‐stimulated insulin secretion
